Results taken from US20260174739A1 (priority 2022, published 2026).

Assays:
[1] = Human liver microsome assay (metabolic stability); format: in vitro ADME; details: pH 7.4; human liver microsomes 0.2 mg/mL, 1 μM test drug, NADPH, 37° C.; read-out: Half-life (t1/2, min)
How it was run: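 Human liver microsomes 0.2 mg/mL with 1 μM compound, 3.0 mM MgCl2 and 2.0 mM NADPH in 0.1 M phosphate pH 7.4, 37 °C; sampled at 0–60 min. LC-MS/MS peak-area ratio to internal standard; T1/2 and CLint from slope of ln residual versus time.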

human DAT = human DAT (Homo sapiens, UniProt Q01959); assay: DAT transporter inhibitory activity test (neurotransmitter transporter uptake assay kit); format: cell-based
Chain of human DAT (Q01959 whole entry): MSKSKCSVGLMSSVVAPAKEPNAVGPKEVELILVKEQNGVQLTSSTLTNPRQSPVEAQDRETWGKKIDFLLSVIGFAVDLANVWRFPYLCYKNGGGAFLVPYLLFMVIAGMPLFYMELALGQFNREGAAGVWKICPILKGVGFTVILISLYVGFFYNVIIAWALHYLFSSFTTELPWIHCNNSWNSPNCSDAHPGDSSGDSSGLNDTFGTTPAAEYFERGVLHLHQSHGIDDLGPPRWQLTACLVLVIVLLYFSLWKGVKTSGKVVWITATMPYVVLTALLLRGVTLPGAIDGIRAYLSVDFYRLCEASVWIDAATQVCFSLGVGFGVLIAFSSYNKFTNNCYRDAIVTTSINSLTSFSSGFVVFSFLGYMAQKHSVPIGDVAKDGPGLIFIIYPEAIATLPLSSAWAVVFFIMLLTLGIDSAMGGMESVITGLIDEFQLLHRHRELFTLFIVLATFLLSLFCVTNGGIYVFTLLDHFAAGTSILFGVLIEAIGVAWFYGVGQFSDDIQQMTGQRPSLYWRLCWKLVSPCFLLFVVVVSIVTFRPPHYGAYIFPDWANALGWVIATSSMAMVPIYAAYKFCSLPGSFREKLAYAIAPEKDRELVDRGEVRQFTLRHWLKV

human NET = human NET (Homo sapiens, UniProt P23975); assay: NET transporter inhibitory activity test (neurotransmitter transporter uptake assay kit); format: cell-based
Chain of human NET (P23975 whole entry): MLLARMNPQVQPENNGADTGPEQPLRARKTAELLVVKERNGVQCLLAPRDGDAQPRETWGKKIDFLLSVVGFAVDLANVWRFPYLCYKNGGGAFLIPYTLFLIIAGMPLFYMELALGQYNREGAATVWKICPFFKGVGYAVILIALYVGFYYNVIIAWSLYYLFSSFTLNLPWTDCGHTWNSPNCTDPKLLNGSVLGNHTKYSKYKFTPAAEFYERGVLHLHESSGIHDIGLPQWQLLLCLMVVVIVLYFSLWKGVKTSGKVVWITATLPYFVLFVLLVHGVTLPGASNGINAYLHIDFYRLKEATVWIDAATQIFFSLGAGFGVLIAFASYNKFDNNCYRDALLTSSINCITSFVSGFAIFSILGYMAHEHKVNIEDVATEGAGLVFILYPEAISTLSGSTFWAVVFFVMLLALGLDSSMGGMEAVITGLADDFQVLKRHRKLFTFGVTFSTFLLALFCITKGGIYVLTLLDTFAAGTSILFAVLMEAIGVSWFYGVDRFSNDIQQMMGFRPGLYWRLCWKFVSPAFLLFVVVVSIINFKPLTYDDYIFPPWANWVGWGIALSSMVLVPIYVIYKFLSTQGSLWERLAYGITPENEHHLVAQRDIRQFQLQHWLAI
Experimental: Transporter inhibition of human DAT and NET expressed in HEK-293 cells was assessed using a neurotransmitter transporter uptake assay kit. The assay was performed as described in the kit instructions, using centanafadine as a positive control. The specific procedures were as follows:
First day cell plating: HEK 293T cells were digested with trypsin, centrifuged, resuspended with a medium, counted, and seeded into a 6 cm culture dish at a density of 3×10^6 cells/well.
Second day cell transfection: HEK 293T cells were subjected to medium exchange, and then A, B tubes were prepared for NET-pcDNA5/FRT plasmid to be transfected. 200 μL of Opti-MEM was added to tube A, and 10 μL of Lipofectamine™ 3000 was added. The mixture was mixed well. 200 μL of Opti-MEM was added to tube B, and 5 μg of NET-pcDNA5/FRT plasmid was added. The mixture was mixed well, and then 10 μL of P3000™ was added to tube B. The mixture was mixed well (plasmid to transfection reagent ratio 1 μg:2 μL). The diluted solution of tube A was added to the diluted solution of tube B. The mixture was mixed well, and incubated at room temperature for 15 min. Finally, the mixture was gently added to the cells that had been subjected to medium exchange, gently shaken to mix, and then incubated overnight in an incubator at 37° C. with a carbon dioxide concentration of 5%. The cells were used for compound functional activity assays 18-20 h after transfection.
• a) After overnight transfection of NET cells, the cells were digested with trypsin, resuspended with DMEM+10% Dialyzed FBS medium, seeded into a 384-well plate at 20000 cells/well, and incubated overnight. Stably transfected DAT cells were digested with trypsin, resuspended with DMEM+10% Dialyzed FBS medium, seeded into a 384-well plate at 2500 cells/well, and incubated overnight. • b) 1× Assay buffer was prepared according to the kit instruction for later use; the positive compound and the test compound were serially diluted with DMSO, and then diluted to 2× with 1× assay buffer. • c) The medium was removed from the 384-well plate by centrifugation. • d) 16 μL of the compound prepared in step b) was added to corresponding experimental wells, wherein an initial concentration of 2× positive control compound was added to the positive control well, and 0.2% DMSO buffer was added to the negative control well. After centrifuging, the plate was incubated at 37° C. for 30 min. • e) A detection reagent was prepared using 1×HBSS, and 16 μL of the detection reagent was added to each well. After centrifuging, the plate was incubated at 37° C. for 60 min. • f) After incubation, the reading at 510 nm under the excitation of the detection wavelength of 425 nm was measured using a microplate reader. Curve fitting and IC50 calculation were performed using GraphPad Prism software nonlinear regression method.

CCNC1(c2ccccc2)CCc2nc(N)sc2C1 (racemic) [rac-A5, N^6-ethyl-6-phenyl-4,5,6,7-tetrahydrobenzothiazole-2,6-diamine]
half-life at 1 μM [1]: > 120 min
IC50 (human DAT): 2000 nM
IC50 (human NET): 3300 nM
